Source: the NIST ThermoML archive (doi:10.1016/j.jct.2018.04.015)

Assay: mn = molality of the nth substance listed, in mol/kg
Settings: 100 kPa, Liquid; for viscosity: Capillary tube (Ostwald / Ubbelohde) method; for mass density: Vibrating tube method

C[N+](C)(C)CCO.[Cl-] [choline chloride] + O
Settings	mass density, 293.15 K [kg/m3]	mass density, 298.15 K [kg/m3]	mass density, 303.15 K [kg/m3]	mass density, 308.15 K [kg/m3]	mass density, 313.15 K [kg/m3]	viscosity, 293.15 K [mPa·s]	viscosity, 298.15 K [mPa·s]	viscosity, 303.15 K [mPa·s]	viscosity, 308.15 K [mPa·s]	viscosity, 313.15 K [mPa·s]
m1 = 0.08502	999.63	998.44	997.02	995.39	993.55	–	–	–	–	–
m1 = 0.09081	–	–	–	–	–	1.034	0.916	0.819	0.737	0.668
m1 = 0.1494	–	–	–	–	–	1.049	0.929	0.831	0.748	0.678
m1 = 0.15	1000.68	999.47	998.03	996.38	994.52	–	–	–	–	–
m1 = 0.2002	1001.48	1000.25	998.79	997.13	995.25	–	–	–	–	–
m1 = 0.2056	–	–	–	–	–	1.062	0.941	0.841	0.757	0.686
m1 = 0.2501	1002.25	1001	999.53	997.85	995.96	–	–	–	–	–
m1 = 0.2998	–	–	–	–	–	1.082	0.959	0.858	0.772	0.7
m1 = 0.3003	1003.03	1001.75	1000.27	998.57	996.66	–	–	–	–	–
m1 = 0.3503	1003.78	1002.49	1000.99	999.27	997.34	–	–	–	–	–
m1 = 0.3511	–	–	–	–	–	1.093	0.968	0.867	0.78	0.708
m1 = 0.3997	1004.52	1003.22	1001.7	999.95	998	–	–	–	–	–
m1 = 0.4226	–	–	–	–	–	1.107	0.981	0.878	0.791	0.718
m1 = 0.4502	1005.27	1003.94	1002.41	1000.64	998.67	–	–	–	–	–
m1 = 0.489	–	–	–	–	–	1.119	0.993	0.889	0.801	0.728
m1 = 0.499	1005.99	1004.64	1003.08	1001.3	999.3	–	–	–	–	–
